Our source for the inhibition and IC50 values is ChEMBL document CHEMBL5321272 (J Med Chem, 2023).

One data set concerns the target hERG (KCNH2) (Homo sapiens, UniProt Q12809). The data set can be described thus: Inhibition of hERG expressed in HEK293 cells at 20 uM by whole cell patch clamp analysis. The format is toxicity, cell-based. The following applies: HEK293 cells expressing hERG.
The target of data set [1] is T1, Serine/threonine-protein kinase Chk1 (Homo sapiens, UniProt O14757).
T1 sequence (O14757 whole entry): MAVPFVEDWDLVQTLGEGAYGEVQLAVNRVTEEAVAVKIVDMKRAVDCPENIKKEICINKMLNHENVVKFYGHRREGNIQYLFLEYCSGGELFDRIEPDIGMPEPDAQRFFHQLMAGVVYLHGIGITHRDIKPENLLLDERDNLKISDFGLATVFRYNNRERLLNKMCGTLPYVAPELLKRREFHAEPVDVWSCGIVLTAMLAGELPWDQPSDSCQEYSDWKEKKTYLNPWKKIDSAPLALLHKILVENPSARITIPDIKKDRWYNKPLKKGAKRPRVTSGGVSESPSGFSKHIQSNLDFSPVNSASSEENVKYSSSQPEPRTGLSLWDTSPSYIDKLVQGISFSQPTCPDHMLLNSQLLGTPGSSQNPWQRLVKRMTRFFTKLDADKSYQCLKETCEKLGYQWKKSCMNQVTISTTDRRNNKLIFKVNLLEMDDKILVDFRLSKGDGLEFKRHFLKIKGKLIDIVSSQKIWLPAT
Description: Inhibition of CHK1 (unknown origin) using peptide substrate S1 and ATP as substrate incubated for 1 hr by HTRF assay

Another data set relates to MV4-11. Description: cells. The following applies: Homo sapiens, MV4-11, 72 h.
Data set [2] has as its target Receptor-type tyrosine-protein kinase FLT3 (Homo sapiens, UniProt P36888, D835Y).
Description: Inhibition of FLT3 D835Y mutant (unknown origin) using peptide substrate TK-S and ATP as substrate incubated for 1 hr by HTRF assay

A value given as a limit tells only on which side of the number the result lay.

hERG (KCNH2), sequence (Q12809 whole entry): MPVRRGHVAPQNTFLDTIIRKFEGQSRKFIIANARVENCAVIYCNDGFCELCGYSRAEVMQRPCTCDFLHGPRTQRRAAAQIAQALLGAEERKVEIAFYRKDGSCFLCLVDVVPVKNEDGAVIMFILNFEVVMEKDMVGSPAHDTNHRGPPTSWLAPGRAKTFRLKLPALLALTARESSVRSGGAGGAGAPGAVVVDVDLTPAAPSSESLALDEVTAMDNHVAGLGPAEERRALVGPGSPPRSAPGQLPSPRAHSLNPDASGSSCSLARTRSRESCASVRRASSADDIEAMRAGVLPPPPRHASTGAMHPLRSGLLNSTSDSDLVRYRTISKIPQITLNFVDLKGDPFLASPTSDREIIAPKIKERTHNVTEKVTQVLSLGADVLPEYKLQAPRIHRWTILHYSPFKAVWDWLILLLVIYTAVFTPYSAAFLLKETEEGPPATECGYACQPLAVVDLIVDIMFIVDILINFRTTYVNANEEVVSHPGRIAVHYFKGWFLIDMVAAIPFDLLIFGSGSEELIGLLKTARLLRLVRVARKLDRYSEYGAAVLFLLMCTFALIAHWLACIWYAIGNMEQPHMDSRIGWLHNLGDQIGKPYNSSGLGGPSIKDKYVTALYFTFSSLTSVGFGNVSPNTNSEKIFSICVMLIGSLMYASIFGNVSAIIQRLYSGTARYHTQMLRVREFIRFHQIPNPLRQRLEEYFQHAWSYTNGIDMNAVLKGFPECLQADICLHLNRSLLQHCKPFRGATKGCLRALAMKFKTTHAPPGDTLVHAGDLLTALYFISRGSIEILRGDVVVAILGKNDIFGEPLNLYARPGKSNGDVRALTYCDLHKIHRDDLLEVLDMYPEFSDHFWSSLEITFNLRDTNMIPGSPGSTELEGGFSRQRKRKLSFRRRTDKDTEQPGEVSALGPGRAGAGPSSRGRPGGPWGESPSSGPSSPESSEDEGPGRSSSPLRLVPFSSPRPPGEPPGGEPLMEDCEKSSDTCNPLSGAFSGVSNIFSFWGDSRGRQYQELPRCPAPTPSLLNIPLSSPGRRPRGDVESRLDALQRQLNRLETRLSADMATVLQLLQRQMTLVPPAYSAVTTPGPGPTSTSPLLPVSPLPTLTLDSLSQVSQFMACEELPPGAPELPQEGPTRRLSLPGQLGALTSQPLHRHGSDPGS
Description for MV4-11: Antiproliferative activity against human MV4-11 cells assessed as reduction in cell viability incubated for 72 hrs by CellTiter 96 Aqueous One Solution Cell Proliferation Assay

With `Cn1ccc2cc(Nc3ncc(C(F)(F)F)c(N[C@H]4CC[C@@H](N)CC4)n3)ccc2c1=O`, the inhibition at 20 µM against hERG (KCNH2) is 75.9%. The same compound had an IC50 in data set [1] of 26.3 nM.
Consider `CC(C)(O)Cn1ccc2cc(Nc3ncc(C(F)(F)F)c(N[C@H]4CC[C@@H](N)CC4)n3)ccc2c1=O`, for which the IC50 in the data set with MV4-11 was 0.62 nM; in data set [2], 3.91 nM; in data set [1] it was 124 nM. At hERG (KCNH2), this compound had an inhibition at 20 µM of 22.1%.
Consider `CC(C)(O)CC(=O)N1CCc2cc(Nc3ncc(C(F)(F)F)c(NCC(C)(C)CN)n3)ccc2C1`, for which the IC50 in the data set on MV4-11 was found to be 27.9 nM; in data set [2] it was 91.4 nM; in data set [1] it was 1060 nM.
As for `CC(C)(O)Cn1cnc2cc(Nc3ncc(C(F)(F)F)c(N[C@H]4CC[C@@H](N)CC4)n3)ccc2c1=O`, the IC50 in the data set on MV4-11 amounted to 1.59 nM; in data set [2], 4.56 nM; in data set [1] it was 206 nM. Testing at 20 µM at hERG (KCNH2) gave an inhibition of 6.82%.
In the case of `CC(C)(O)CC(=O)N1CCc2cc(Nc3ncc(C(F)(F)F)c(N[C@H]4CC[C@@H](NS(C)(=O)=O)CC4)n3)ccc2C1`, the IC50 in the data set with MV4-11 is 6.21 nM; in data set [2] it was 3.8 nM; in data set [1], 827 nM.
Consider `CC(C)(O)CC(=O)N1CCc2cc(Nc3ncc(C(F)(F)F)c(NC[C@H]4CCCNC4)n3)ccc2C1`, for which the values for the IC50 (in the data set with MV4-11; in data set [2]; in data set [1]) were 2.71 nM, 12 nM and 86.5 nM, respectively.
The corresponding values for `CC(C)(O)C(=O)N1CCc2nc(Nc3ncc(C(F)(F)F)c(N[C@H]4CC[C@@H](N)CC4)n3)ccc2C1` are 9.51 nM, 55.4 nM and 250 nM.
In the case of `CC(C)(O)CC(=O)N1CCc2nc(Nc3ncc(C(F)(F)F)c(N[C@H]4CC[C@@H](N)CC4)n3)ccc2C1`, the IC50 with MV4-11 worked out at 21.4 nM; in data set [2] it was 77.1 nM; in data set [1] it was 362 nM.
Regarding `CC(C)(O)CC(=O)N1CCc2cc(Nc3ncc(C(F)(F)F)c(N[C@@H]4CCCC[C@@H]4N)n3)ccc2C1`, the half-maximal inhibitory concentration (IC50) in data set [2] was found to be 224 nM; in data set [1], 1970 nM.
Consider `CC(C)(O)CC(=O)N1CCc2cc(Nc3ncc(C(F)(F)F)c(N[C@@H]4CCCNC4)n3)ccc2C1`, for which the IC50 in the data set with MV4-11 was 2.26 nM; in data set [2], 4.03 nM; in data set [1], 35.2 nM. Besides, the inhibition at 20 µM at hERG (KCNH2) is 35%.
As to `CCn1ccc2cc(Nc3ncc(C(F)(F)F)c(N[C@H]4CC[C@@H](N)CC4)n3)ccc2c1=O`, the IC50 in the data set on MV4-11 was determined as 0.99 nM; in data set [2], 1.59 nM; in data set [1], 26.7 nM.
On to `CC(C)(O)CC(=O)N1CCc2cc(Nc3ncc(C(F)(F)F)c(NCCCCCN)n3)ccc2C1`, for which the IC50 amounted to 12.7 nM in the data set with MV4-11, 3.19 nM in data set [2] and 159 nM in data set [1].
The like results for `CC(=O)N1CCc2nc(Nc3ncc(C(F)(F)F)c(N[C@H]4CC[C@@H](N)CC4)n3)ccc2C1` were, in that order, 1.45 nM, 61.4 nM and 301 nM.
In the case of `CNCCCNc1nc(Nc2ccc3c(c2)CCN(C(=O)CC(C)(C)O)C3)ncc1C(F)(F)F`, the IC50 came out at 14.2 nM with MV4-11, 27.3 nM in data set [2] and 61.6 nM in data set [1].
The corresponding values for `CC(C)(N)CNc1nc(Nc2ccc3c(c2)CCN(C(=O)CC(C)(C)O)C3)ncc1C(F)(F)F` are 39.7 nM, 166 nM and 2000 nM.
For the compound `CC(C)(O)CC(=O)N1CCc2cc(Nc3ncc(C(F)(F)F)c(NC4CCNCC4)n3)ccc2C1`, the IC50 in the data set with MV4-11 was 22.4 nM; in data set [2] it was 40.9 nM; in data set [1] it was 227 nM.
The corresponding values for `CC(C)(O)CC(=O)N1CCc2cc(Nc3ncc(C(F)(F)F)c(N[C@H]4CC[C@H](N)CC4)n3)ccc2C1` are 5.89 nM, 12 nM and 96 nM.
Consider `Cn1ncc2cc(Nc3ncc(C(F)(F)F)c(N[C@H]4CC[C@@H](N)CC4)n3)ccc2c1=O`, for which the half-inhibitory concentration (IC50) with MV4-11 is 1.36 nM; in data set [2] it was 4.22 nM; in data set [1] it was 58.5 nM. This compound yielded an inhibition at 20 µM on hERG (KCNH2) of 81.9%.
`CC(C)(O)Cn1ccc2cc(Nc3ncc(C(F)(F)F)c(N[C@H]4C[C@H]5CC[C@@H](C4)N5)n3)ccc2c1=O`: the IC50 in the data set on MV4-11 is greater than 5000 nM; in data set [2], 488 nM; in data set [1], 2020 nM.
For `CC(C)(O)Cn1ncc2cc(Nc3ncc(C(F)(F)F)c(N[C@H]4CC[C@@H](N)CC4)n3)ccc2c1=O`, the IC50 in the data set on MV4-11 turned out to be 1.1 nM; in data set [2], 2.69 nM; in data set [1], 66.9 nM. At hERG (KCNH2), the inhibition at 20 µM was found to be 48.1%.
For `CC(=O)N[C@H]1CC[C@@H](Nc2nc(Nc3ccc4c(c3)CCN(C(=O)CC(C)(C)O)C4)ncc2C(F)(F)F)CC1`, the IC50 is 20.7 nM in the data set on MV4-11, 18.9 nM in data set [2] and 1090 nM in data set [1].
On to `CC(C)(O)CC(=O)N1CCc2cc(Nc3ncc(C(F)(F)F)c(N[C@H]4CCCNC4)n3)ccc2C1`, for which the IC50 in data set [2] turned out to be 311 nM; in data set [1], 952 nM.
Consider `CC(C)(O)CC(=O)N1CCc2cc(Nc3ncc(C(F)(F)F)c(NCCCCN)n3)ccc2C1`, for which the figures for the IC50 (in the data set on MV4-11; in data set [2]; in data set [1]) were 0.61 nM, 1.5 nM and 41.1 nM, respectively.
`N#Cc1cnc(Nc2cc(NC[C@H]3CNCCO3)c(C(F)(F)F)cn2)cn1` [SRA-737] returned an IC50 in the data set with MV4-11 of 245 nM.
In the case of `CC(C)(O)CC(=O)N1CCc2cc(Nc3ncc(C(F)(F)F)c(NCCCNS(C)(=O)=O)n3)ccc2C1`, the results for the IC50 in data set [2] and in data set [1] were 18.1 nM and 1950 nM, respectively.
Consider `Cn1cnc2cc(Nc3ncc(C(F)(F)F)c(N[C@H]4CC[C@@H](N)CC4)n3)ccc2c1=O`, for which the IC50 in the data set on MV4-11 amounted to 1.77 nM; in data set [2] it was 8.8 nM; in data set [1], 223 nM. In addition, the inhibition at 20 µM against hERG (KCNH2) stood at 48.3%.
`CC(=O)N1CCc2ccc(Nc3ncc(C(F)(F)F)c(N[C@H]4CC[C@@H](N)CC4)n3)cc21`: the IC50 came to 36 nM in the data set with MV4-11, 9.84 nM in data set [2] and 58 nM in data set [1].
With `CC(=O)NCCCNc1nc(Nc2ccc3c(c2)CCN(C(=O)CC(C)(C)O)C3)ncc1C(F)(F)F`, the IC50 in the data set with MV4-11 turned out to be 44.5 nM; in data set [2], 16.1 nM; in data set [1], 765 nM.
Regarding `CC(C)(N)CCNc1nc(Nc2ccc3c(c2)CCN(C(=O)CC(C)(C)O)C3)ncc1C(F)(F)F`, the IC50 with MV4-11 worked out at 0.62 nM; in data set [2] it was 3.32 nM; in data set [1] it was 219 nM. The same compound gave an inhibition at 20 µM at hERG (KCNH2) of 31.9%.
In the case of `CC(C)(O)CC(=O)N1CCc2cc(Nc3ncc(C(F)(F)F)c(NC[C@@H]4CCCNC4)n3)ccc2C1`, the values for the IC50 (with MV4-11; in data set [2]; in data set [1]) were 8.26 nM, 24.1 nM and 336 nM, respectively.
For the compound `CC(C)(O)CC(=O)N1CCc2cc(Nc3ncc(C(F)(F)F)c(NCCN)n3)ccc2C1`, the IC50 in data set [2] turned out to be 38.2 nM; in data set [1], 135 nM.
With `CC(C)(O)Cn1ccc2cc(Nc3ncc(C(F)(F)F)c(NC4CC5(CNC5)C4)n3)ccc2c1=O`, the IC50 came out at 66.2 nM in the data set on MV4-11, 26.6 nM in data set [2] and 80.1 nM in data set [1].
On to `CC(C)(O)CC(=O)N1CCc2cc(Nc3ncc(C(F)(F)F)c(NCC4CCNCC4)n3)ccc2C1`, for which the 50% inhibitory concentration (IC50) worked out at 6.79 nM with MV4-11, 10.4 nM in data set [2] and 87.3 nM in data set [1].
Turning to `CC(C)(O)CC(=O)N1CCc2cc(Nc3ncc(C(F)(F)F)c(N[C@H]4CCCC[C@H]4N)n3)ccc2C1`, the IC50 is 1450 nM in data set [2] and greater than 10000 nM in data set [1].
